Experimental data taken from US8877747B2, “Indenone derivative and pharmaceutical composition comprising same” (Korea Research Institute of Chemical Technology, priority 2009, dated 2014).
Structures can show the parent of a compound that is named as a salt.

What was measured:
[1] = system: ovariectomized female DDY mice; experiment: Bone density after ovariectomy, in-vivo micro-CT; parameters: species or system mouse; settings: oral once a day for 4 weeks
Text: (§1) Most pharmacological effectiveness of therapeutic agents for osteoporosis has been evaluated using an animal, rather than a human. Particularly, as a model animal for osteoporosis occurring after menopause, ovariectomized female rats have been used for its similarity to women after menopause. To examine the effects of the indenone derivatives on the bone resorption, female SD rats and female DDY mice were subjected to ovariectomy. After the rats or mice were anesthetized by abdominally injecting 25 mg/kg of sodium pentobarbital (Choongwae pharma coporation), the fur of the abdominal region was shaved and the operation area was sterilized. About 1.5 cm of abdominal skin, abdominal muscle, and peritoneum were cut in the middle under aseptic condition, and ovary was exposed, followed by removal of both left and right ovaries after ligaturing of oviducts using silk threads. Then, peritoneum, abdominal muscle and skin were sutured with silk threads. The Sham group, animals operated upon for the surgery as in the ovariectomized rats except for removing ovary, was employed to compare the effects. […]

[2] = system: ovariectomized female SD rats; experiment: Bone density after ovariectomy, in-vivo micro-CT; parameters: species or system rat; settings: oral once a day for 4 weeks
Text: as §1

[3] = system: MC3T3-E1 cells; experiment: ALP activity, differentiation of osteoblast cells; type: cell-based; settings: Mus musculus, MC3T3-E1, 144 h; MC3T3E1 cells treated with 10 μM compound and OF; relates activity to OF-only group (100%); higher = more efficacious
Outline: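 MC3T3-E1 cells were cultured 6 days at 37 °C in osteogenic medium (ascorbic acid, β-glycerophosphate) with compound at 0.1, 1 and 10 μM; medium and compound were renewed every 2-3 days. Freeze-thaw lysates were protein-normalised and ALP activity was read with 4-nitrophenylphosphate; DMSO and OF-only groups served as comparators.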

Row | Compound | Bone density (FIG. 3A) [1] | Bone density (FIG. 3B) [2] | activity at 10 µM [3] [%]
1 | O=C1C(c2cccnc2)=C(c2ccccc2)c2ccc(OCCN3CCOCC3)cc21 [Example 1, 6-(2-morpholinoethoxy)-3-phenyl-2-(pyridin-3-yl)-1H-inden-1-one hydrochloride salt] | significantly increased | significantly increased | 455
2 | COc1ccc(C2=C(c3ccc(F)cc3F)c3ccc(OCCC4CCN(S(C)(=O)=O)CC4)cc3C2=O)cc1F [Example 122, 2-(3-fluoro-4-methoxyphenyl)-3-(2,4-difluorophenyl)-6-{2-[1-(methylsulfonyl)piperidin-4-yl]ethoxy}-1H-inden-1-one] |  |  | 203
3 | CS(=O)(=O)N1CCC(CCOc2ccc3c(c2)C(=O)C(c2cnc4ccccc4c2)=C3c2ccc(F)cc2F)CC1 [Example 123, 3-(2,4-difluorophenyl)-6-{2-[1-(methylsulfonyl)piperidin-4-yl]ethoxy}-2-(quinolin-3-yl)-1H-inden-1-one] |  |  | 164
4 | COc1ccc(C2=C(c3ccc(F)cc3F)c3ccc(OCCN4CCOCC4)cc3C2=O)cn1 [Example 125, 3-(2,4-difluorophenyl)-2-(6-methoxypyridin-3-yl)-6-[2-(morpholin-4-yl)ethoxy]-1H-inden-1-one] |  |  | 63
5 | COc1ccc(C2=C(c3ccc(F)cc3F)c3ccc(OCCN4CCOCC4)cc3C2=O)cc1F [Example 126, 2-(3-fluoro-4-methoxyphenyl)-3-(2,4-difluorophenyl)-6-[2-(morpholin-4-yl)ethoxy]-1H-inden-1-one] |  |  | 73
6 | O=C1C(c2cnc3ccccc3c2)=C(c2ccc(F)cc2F)c2ccc(OCCN3CCOCC3)cc21 [Example 127, 3-(2,4-difluorophenyl)-6-[2-(morpholin-4-yl)ethoxy]-2-(quinolin-3-yl)-1H-inden-1-one] |  |  | 55
